From ChEMBL document CHEMBL5303573, “Mapping human microbiome drug metabolism by gut bacteria and their genes” (Nature, 2019) come the findings set out here.

Molecules are shown by their SMILES.

Data set [1] can be described thus: The drug is tested on Alistipes indistinctus strain: DSM22520 for biotransformation. The drug concentrations were measured before and after a 12-h incubation by liquid-chromatography-coupled mass spectrometry (LC–MS). As to conditions: 2 µM.
Data set [2] in a line: The drug is tested on Bacteroides dorei strain: DSM17855 for biotransformation. The drug concentrations were measured before and after a 12-h incubation by liquid-chromatography-coupled mass spectrometry (LC–MS). The following applies: phocaeicola dorei, 2 µM.
The nature of data set [3]: The drug is tested on Clostridium asparagiforme strain: DSM15981 for biotransformation. The drug concentrations were measured before and after a 12-h incubation by liquid-chromatography-coupled mass spectrometry (LC–MS). As to conditions: enterocloster asparagiformis, 2 µM. Set-up: dose 2 uM, timepoint 0 vs 12 hours. It is filed as ADME.
A short description of data set [4]: The drug is tested on Enterobacter cancerogenus strain: ATCC35316 for biotransformation. The drug concentrations were measured before and after a 12-h incubation by liquid-chromatography-coupled mass spectrometry (LC–MS). As to conditions: 2 µM.
Data set [5] in a line: The drug is tested on the gut metagenome community of MV04 with ENA study accession number: PRJEB31790 and ENA sample accession number: SAMEA5537485 for biotransformation. The drug concentrations were measured over 9 timepoints collected between 0 and 24 hours of incubation by liquid-chromatography-coupled mass spectrometry (LC–MS). The data set is classed as ADME. The following applies: 2 µM. Also on record: dose 2 uM, timepoint 0, 1, 2, 4, 6, 8, 12, 18, 24 hours.

Data set [6] can be described thus: The drug is tested on the gut metagenome community of MV05 with ENA study accession number: PRJEB31790 and ENA sample accession number: SAMEA5537486 for biotransformation. The drug concentrations were measured over 9 timepoints collected between 0 and 24 hours of incubation by liquid-chromatography-coupled mass spectrometry (LC–MS). Set-up: dose 2 uM, timepoint 0, 1, 2, 4, 6, 8, 12, 18, 24 hours. As to conditions: 2 µM. The data set is classed as ADME.

Data set [7] is described as follows: The drug is tested on the gut metagenome community of MV09 with ENA study accession number: PRJEB31790 and ENA sample accession number: SAMEA5537490 for biotransformation. The drug concentrations were measured over 9 timepoints collected between 0 and 24 hours of incubation by liquid-chromatography-coupled mass spectrometry (LC–MS). As to conditions: 2 µM. The data set is classed as ADME. Set-up: dose 2 uM, timepoint 0, 1, 2, 4, 6, 8, 12, 18, 24 hours.

A short description of data set [8]: The drug is tested on the gut metagenome community of MV10 with ENA study accession number: PRJEB31790 and ENA sample accession number: SAMEA5537491 for biotransformation. The drug concentrations were measured over 9 timepoints collected between 0 and 24 hours of incubation by liquid-chromatography-coupled mass spectrometry (LC–MS). It is filed as ADME. Set-up: dose 2 uM, timepoint 0, 1, 2, 4, 6, 8, 12, 18, 24 hours. The following applies: 2 µM.

Data set [9] in a line: The drug is tested on the gut metagenome community of MV12 with ENA study accession number: PRJEB31790 and ENA sample accession number: SAMEA5537493 for biotransformation. The drug concentrations were measured over 9 timepoints collected between 0 and 24 hours of incubation by liquid-chromatography-coupled mass spectrometry (LC–MS). The following applies: 2 µM. Set-up: dose 2 uM, timepoint 0, 1, 2, 4, 6, 8, 12, 18, 24 hours. It is filed as ADME.

Data set [10] can be described thus: The drug is tested on the gut metagenome community of MV14 with ENA study accession number: PRJEB31790 and ENA sample accession number: SAMEA5537495 for biotransformation. The drug concentrations were measured over 9 timepoints collected between 0 and 24 hours of incubation by liquid-chromatography-coupled mass spectrometry (LC–MS). It is filed as ADME. Also on record: dose 2 uM, timepoint 0, 1, 2, 4, 6, 8, 12, 18, 24 hours. The following applies: 2 µM.

Data set [11] can be described thus: The drug is tested on the gut metagenome community of MV17 with ENA study accession number: PRJEB31790 and ENA sample accession number: SAMEA5537498 for biotransformation. The drug concentrations were measured over 9 timepoints collected between 0 and 24 hours of incubation by liquid-chromatography-coupled mass spectrometry (LC–MS). The following applies: 2 µM. Also on record: dose 2 uM, timepoint 0, 1, 2, 4, 6, 8, 12, 18, 24 hours. The data set is classed as ADME.

Data set [12] is described as follows: The drug is tested on the gut metagenome community of MV22 with ENA study accession number: PRJEB31790 and ENA sample accession number: SAMEA5537503 for biotransformation. The drug concentrations were measured over 9 timepoints collected between 0 and 24 hours of incubation by liquid-chromatography-coupled mass spectrometry (LC–MS). It is filed as ADME. Also on record: dose 2 uM, timepoint 0, 1, 2, 4, 6, 8, 12, 18, 24 hours. The following applies: 2 µM.

Data set [13] in a line: The drug is tested on the gut metagenome community of MV25 with ENA study accession number: PRJEB31790 and ENA sample accession number: SAMEA5537506 for biotransformation. The drug concentrations were measured over 9 timepoints collected between 0 and 24 hours of incubation by liquid-chromatography-coupled mass spectrometry (LC–MS). The data set is classed as ADME. Set-up: dose 2 uM, timepoint 0, 1, 2, 4, 6, 8, 12, 18, 24 hours. As to conditions: 2 µM.

Data set [14] is described as follows: The drug is tested on the gut metagenome community of MV26 with ENA study accession number: PRJEB31790 and ENA sample accession number: SAMEA5537507 for biotransformation. The drug concentrations were measured over 9 timepoints collected between 0 and 24 hours of incubation by liquid-chromatography-coupled mass spectrometry (LC–MS). As to conditions: 2 µM. Also on record: dose 2 uM, timepoint 0, 1, 2, 4, 6, 8, 12, 18, 24 hours. The data set is classed as ADME.

Data set [15] can be described thus: The drug is tested on the gut metagenome community of MV28 with ENA study accession number: PRJEB31790 and ENA sample accession number: SAMEA5537509 for biotransformation. The drug concentrations were measured over 9 timepoints collected between 0 and 24 hours of incubation by liquid-chromatography-coupled mass spectrometry (LC–MS). The data set is classed as ADME. Set-up: dose 2 uM, timepoint 0, 1, 2, 4, 6, 8, 12, 18, 24 hours. The following applies: 2 µM.

The conditions of data set [16]: victivallis vadensis, 12 h, 2 µM.
Description: The drug is tested on Victivallis vadensis strain: ATCC BAA-548 for biotransformation. The drug concentrations were measured before and after a 12-h incubation by liquid-chromatography-coupled mass spectrometry (LC–MS)

Consider `C[C@@H]1C[C@H]2[C@@H]3CCC4=CC(=O)C=C[C@]4(C)[C@@]3(F)[C@@H](O)C[C@]2(C)[C@@]1(O)C(=O)CO` [DEXAMETHASONE], for which the “Bacterial Biotransformation” value is reported as “Compound NOT metabolized” in [1]; “Compound metabolized” in data set [2]; “Compound NOT metabolized” in [3]; “Compound NOT metabolized” in [4]; “Compound NOT metabolized” in data set [5]; “Compound NOT metabolized” in data set [6]. The “Bacterial Biotransformation” value was “Compound metabolized” in [7]; “Compound metabolized” in data set [8]; “Compound NOT metabolized” in data set [9]; “Compound NOT metabolized” in [10]; “Compound NOT metabolized” in data set [11]; “Compound NOT metabolized” in data set [12]. Further, the “Bacterial Biotransformation” value in data set [13], in data set [14], in [15] and in [16] was “Compound NOT metabolized” in each case.
